Assay results published in patent US4640922A, “3N-substituted 3,4-dihydropyrimidines as agents for treating disorders of cardiovascular system” (Suntory Limited, priority 1984, dated 1987).
Read-outs that look alike come from different tables or passages of the source.

Legend:
[1] = tested on: coronary artery (isolated heart); test: Coronary vascular dilative effect, isolated perfused guinea pig heart, Langendorff's method (perfusion pressure); details: for Pharmacological data ED50: 0.1 ml injected into coronary artery, isolated guinea pig heart, 37° C., 6 ml/minute
Description: The coronary vascular dilative effect of 3N-substituted 3,4-dihydropryrimidine derivatives was tested.
Heartly guinea pigs (weight 400-500 g) were clubbed dead and their hearts were immediately isolated. The hearts were perfused with Krebs-Henseleit solution bubbled with a mixture of 95% O2 +5% CO2 and maintained at 37° C. at a certain rate of 6 ml/minute according to Langendorff's method [J. Pharmacol. Methods 2, 143 (1979)]. The perfusion pressure was determined by a pressure transducer. Samples were prepared by dissolving 1 mg of a test compound in 1 ml of a mixture of dimethylsulfoxide and physiological saline (1:9) and diluting with physiological saline the solution to the predetermined concentration. 0.1 ml of the diluted solution was administered into the coronary artery via a rubber tube connected to an aorta cannula to obtain ED50 (μg/heart) data as shown in Table 1. The numbers of the compounds in the Table correspond respectively to those of the working examples described above.

vertebral artery = test: Blood flow and blood vessel resistance of vertebral artery in anesthetized dogs; type: in vivo, dog; details: Canis lupus familiaris, iv, % of value before administration, average ± standard error
Description: (§1) The pharmacological effects of the compounds of the present invention with respect to the blood flow and blood vessel resistance of vertebral artery and systemic blood pressure (average pressure) in anesthetized dogs. […] The first and second ribs were cut open to expose the left vertebral artery. A probe was attached to the origin of the artery and the blood flow was measured with an electromagnetic rheometer (Model MF-27, product of Nihon Koden K.K.) At the same time, continuous measurement of the following parameters was made: systemic blood pressure (average pressure) at the right femoral artery, the ECG in the second induction period, the heart beat with a tachometer driven by the R wave, and the blood vessel resistance determined by loading a multiplication/division unit (EO-601 G, product of Nihon Koden K.K.) with the average values of blood pressure and blood flow in the vertebral artery. All of these parameters were recorded simultaneously on a polygraph (RM-600, product of Nihon Koden, K.K.) All of the test compounds were injected through a cannula inserted into the femoral […].

systemic blood pressure = test: Systemic blood pressure (average pressure) in anesthetized dogs; type: in vivo, dog; details: Canis lupus familiaris, iv, % of value before administration, average ± standard error, read-out: Average blood pressure, percentage compared with control
Description: as §1

[2] = read-out: Vertebral artery blood flow, percentage compared with control
[3] = read-out: Vertebral artery vessel resistance, percentage compared with control

| Structure (SMILES) | Pharmacological data ED50 [1] [μg/heart] | response vs control in vivo at 0.001 mg/kg (vertebral artery; [2]) [%] | response vs control in vivo at 0.001 mg/kg (vertebral artery; [3]) [%] | response vs control in vivo at 0.003 mg/kg (vertebral artery; [2]) [%] | response vs control in vivo at 0.003 mg/kg (vertebral artery; [3]) [%] | response vs control in vivo at 0.01 mg/kg (vertebral artery; [2]) [%] | response vs control in vivo at 0.01 mg/kg (vertebral artery; [3]) [%] | response vs control in vivo at 0.03 mg/kg (vertebral artery; [2]) [%] | response vs control in vivo at 0.03 mg/kg (vertebral artery; [3]) [%] | response vs control in vivo at 0.1 mg/kg (vertebral artery; [2]) [%] | response vs control in vivo at 0.1 mg/kg (vertebral artery; [3]) [%] | response vs control in vivo at 0.001 mg/kg (systemic blood pressure) [%] | response vs control in vivo at 0.003 mg/kg (systemic blood pressure) [%] | response vs control in vivo at 0.01 mg/kg (systemic blood pressure) [%] | response vs control in vivo at 0.03 mg/kg (systemic blood pressure) [%] | response vs control in vivo at 0.1 mg/kg (systemic blood pressure) [%] | further results |
| --- | --- | --- | --- | --- | --- | --- | --- | --- | --- | --- | --- | --- | --- | --- | --- | --- | --- |
| COC(=O)C1=C(C)N=C(C)N(C(=O)OC)C1c1ccccc1[N+](=O)[O-] (stereo not drawn) [Compound 10] | 0.75 | 102 | 99 | 108 | 94 | 113 | 86 | 140 | 67 | 146 | 58 | 92 | 91 | 86 | 78 | 63 |  |
| CCOC(=O)C1=C(C)N=C(C)N(C(=O)OCC)C1c1cccc([N+](=O)[O-])c1 (stereo not drawn) [Compound 12] | 1.9 |  |  | 129 ± 11 | 86 ± 2 | 148 ± 3 | 73 ± 3 | 163 ± 7 | 62 ± 4 | 200 ± 6 | 47 ± 5 |  | 93 ± 0.3 | 86 ± 1 | 84 ± 3 | 77 ± 2 |  |
| CCOC(=O)C1=C(Cl)N=C(C)N(C(=O)OCC)C1c1cccc([N+](=O)[O-])c1 (stereo not drawn) [Compound 13] | 0.48 |  |  | 108 | 89 | 126 | 81 | 128 | 73 | 158 | 54 |  | 94 | 92 | 88 | 78 | response vs control in vivo at 0.3 mg/kg (vertebral artery; [2]): 179%; response vs control in vivo at 0.3 mg/kg (vertebral artery; [3]): 46%; response vs control in vivo at 1 mg/kg (vertebral artery; [2]): 216%; response vs control in vivo at 1 mg/kg (vertebral artery; [3]): 41%; response vs control in vivo at 0.3 mg/kg (systemic blood pressure; 0.3 mg/kg): 78%; response vs control in vivo at 1 mg/kg (systemic blood pressure; 1.0 mg/kg): 77% |
| COC(=O)C1=C(C)N=C(C)N(C(=O)OC)C1c1cccc([N+](=O)[O-])c1 (stereo not drawn) [Compound 17] | 2.5 | 100 | 97 | 106 | 95 | 108 | 89 | 129 | 77 | 148 | 67 | 95 | 90 | 89 | 86 | 74 |  |
| CCOC(=O)C1=C(C)N=C(C)N(C(=O)OCC)C1c1ccccc1Cl (stereo not drawn) [Compound 22] | 0.086 | 105 | 96 | 119 | 80 | 136 | 65 | 188 | 49 | 229 | 39 | 94 | 89 | 82 | 85 | 79 | coronary vascular dilative effects (in words) ([1]; Langendorff's method, guinea pig heart): extremely strong coronary vascular dilative effects |
